In patent US4076705A, “Dipeptide derivatives and their production” (Shionogi & Co., Ltd., priority 1974, dated 1978):

Tests used:
Assay type in all cases: in vivo
DS male mice [1] = test: Taming activity; conditions: for Taming activity ED50: given 60 minutes prior, inhibition of fighting responses to 5 Hz square wave pulse, 5 pairs; for times more potent than diazepam, taming activity: versus diazepam (Compound No. 5)
Protocol: This test was measured on DS male mice. […] These pairs of mice were selected in the morning and used for drug test in the afternoon. The test compound was administered to both mice of the pairs 60 minutes prior to the experiment. Results were obtained as the mean percentage of inhibition of fighting responses in a group of 5 pairs and shown by ED50 [Tedeschi, et al.: J. Pharmacol Exp. Thev., 125, 28-34 (1959) ].

DS male mice [2] = test: Anti-pentylenetetrazol activity; conditions: for Anti-pentylenetetrazol activity, ED50: oral, 60 minutes prior to 125 mg/kg s.c. pentylenetetrazol, complete protection against mortality, observed two hours; for times more potent than diazepam, anti-pentylenetetrazol activity: versus diazepam (Compound No. 5)
Text: 1. Anti-pentylenetetrazol activity
The convulsions were disregarded.

DS male mice [3] = test: Rotarod performance activity; conditions: fall from rod (five rotations per minute) within less than 2 minutes
Protocol: 3. Rotarod performance activity
This test was measured on DS male mice. The mouse was put on a scraped rod of wood, 3 cm in diameter, turning at the rate of five rotations per minute. The mice that could remain on the rod for three or more minutes in successive trials were selected and placed in a group of 10 mice for each dose. If the mouse fell down from the rod within less than 2 minutes, the test compound was considered to be effective. Results were shown by ED50 [Dunham, et al.: J. Am. Pharm. Assoc., 46, 208 (1959)].

[4] = versus chlordiazepoxide (Compound No. 4)

CN(C(=O)CNC(=O)CN)c1ccc(Cl)cc1C(=O)c1ccccc1 [Compound No. 1, 2-benzoyl-4-chloro-N-methyl-N^α -glycyl-glycinanilide]
times more potent than chlordiazepoxide, taming activity (DS male mice [1]; [4]): 2 to 3 times
Anti-pentylenetetrazol activity, ED50 (DS male mice [2]): 1.0 mg/kg
times more potent than chlordiazepoxide, anti-pentylenetetrazol activity (DS male mice [2]; [4]): 2 to 3 times

CN(C(=O)CNC(=O)CN)c1ccc(Cl)cc1C(=O)c1ccccc1Cl.O [Compound No. 2, 2-o-chlorobenzoyl-4-chloro-N-methyl-N^α -glycyl-glycinanilide hydrate]
Taming activity ED50 (DS male mice [1]): 3.0 mg/kg
times more potent than diazepam, taming activity (DS male mice [1]): 2 to 4 times
Anti-pentylenetetrazol activity, ED50 (DS male mice [2]): 0.58 mg/kg
times more potent than diazepam, anti-pentylenetetrazol activity (DS male mice [2]): 2 to 4 times

CN(C(=O)CNC(=O)CN)c1ccc(Cl)cc1C(=O)c1ccccc1F.Cl [Compound No. 3, 2-o-fluorobenzoyl-4-chloro-N-methyl-N^α -glycyl-glycinanilide hydrochloride]
Taming activity ED50 (DS male mice [1]): 1.6 mg/kg
times more potent than diazepam, taming activity (DS male mice [1]): 2 to 4 times
Anti-pentylenetetrazol activity, ED50 (DS male mice [2]): 0.33 mg/kg
times more potent than diazepam, anti-pentylenetetrazol activity (DS male mice [2]): 2 to 4 times
Rotarod performance ED50 (DS male mice [3]): 17.0 mg/kg

CNC1=Nc2ccc(Cl)cc2C(c2ccccc2)=[N+]([O-])C1 [Compound No. 4, Chlordiazepoxide, reference compound]
Rotarod performance ED50 (DS male mice [3]): 50.0 mg/kg
